Assay results: PMC7522982, “PKIS deep dive yields a chemical starting point for dark kinases and a cell active BRSK2 inhibitor” (Scientific Reports, 2020)
Where two headings read alike, the source gives them in different places.

Columns and labels:
PIM3 = PIM3 (Homo sapiens, UniProt Q86V86); design: purchased Eurofins DiscoverX (scanMAX) / Eurofins enzymatic assays; method as in earlier work; conditions: cited from earlier work
MAP2K5/MEK5 = biological target: T1, MAP2K5/MEK5 (Homo sapiens, UniProt Q13163); experiment: Eurofins kinase enzymatic LANCE assay; assay type: biochemical
T1 construct: purchased Eurofins
T1 sequence (Q13163 whole entry): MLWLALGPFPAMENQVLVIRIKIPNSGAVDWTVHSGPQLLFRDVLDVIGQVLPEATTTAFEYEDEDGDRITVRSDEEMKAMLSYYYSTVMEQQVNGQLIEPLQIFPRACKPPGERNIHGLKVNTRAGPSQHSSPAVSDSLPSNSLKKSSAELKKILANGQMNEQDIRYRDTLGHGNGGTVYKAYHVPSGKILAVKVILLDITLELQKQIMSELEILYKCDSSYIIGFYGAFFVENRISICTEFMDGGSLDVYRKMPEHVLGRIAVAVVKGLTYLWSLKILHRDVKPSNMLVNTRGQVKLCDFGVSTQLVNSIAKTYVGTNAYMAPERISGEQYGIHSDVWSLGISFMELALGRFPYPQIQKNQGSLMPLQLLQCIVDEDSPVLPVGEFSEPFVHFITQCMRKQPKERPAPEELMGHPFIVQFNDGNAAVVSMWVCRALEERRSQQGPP
Description: (§1) Due to our interest in the activity of GW296115 on several understudied IDG kinases, we collected full dose–response curves for all wild type kinases inhibited ≥ 75% in the DiscoverX panel that were offered by Eurofins. Having data in orthogonal formats is a powerful way to confirm inhibitory activity and adds rigor to our results. Eurofins has kinase enzymatic radiometric assays for 35 of the kinases on this list (Table S2) and a kinase enzymatic LANCE assay for one additional kinase (MAP2K5/MEK5).
(§2) Eurofins kinase enzymatic radiometric assays were carried out at the Km of ATP in dose–response (9-pt curve in duplicate) for each kinase for which it was offered.

[1] = test system: cytoplasmic domain of PDGFR; design: method as in PMID 10048786; conditions: insect cells; read-out: IC50, autophosphorylation of the cytoplasmic domain of PDGFR in insect cells; cited from earlier work
[2] = test system: cytoplasmic domain of PDGFR; design: method as in PMID 10048786; conditions: in vitro; read-out: IC50, autophosphorylation of the cytoplasmic domain of PDGFR in vitro; cited from earlier work
BRSK1 = biological target: T2, BRSK1 (Homo sapiens, UniProt Q8TDC3); experiment: Eurofins kinase enzymatic radiometric assay; assay type: biochemical; design: purchased Eurofins; conditions: Km of ATP, 9-point curve in duplicate
T2 sequence (Q8TDC3 1-778): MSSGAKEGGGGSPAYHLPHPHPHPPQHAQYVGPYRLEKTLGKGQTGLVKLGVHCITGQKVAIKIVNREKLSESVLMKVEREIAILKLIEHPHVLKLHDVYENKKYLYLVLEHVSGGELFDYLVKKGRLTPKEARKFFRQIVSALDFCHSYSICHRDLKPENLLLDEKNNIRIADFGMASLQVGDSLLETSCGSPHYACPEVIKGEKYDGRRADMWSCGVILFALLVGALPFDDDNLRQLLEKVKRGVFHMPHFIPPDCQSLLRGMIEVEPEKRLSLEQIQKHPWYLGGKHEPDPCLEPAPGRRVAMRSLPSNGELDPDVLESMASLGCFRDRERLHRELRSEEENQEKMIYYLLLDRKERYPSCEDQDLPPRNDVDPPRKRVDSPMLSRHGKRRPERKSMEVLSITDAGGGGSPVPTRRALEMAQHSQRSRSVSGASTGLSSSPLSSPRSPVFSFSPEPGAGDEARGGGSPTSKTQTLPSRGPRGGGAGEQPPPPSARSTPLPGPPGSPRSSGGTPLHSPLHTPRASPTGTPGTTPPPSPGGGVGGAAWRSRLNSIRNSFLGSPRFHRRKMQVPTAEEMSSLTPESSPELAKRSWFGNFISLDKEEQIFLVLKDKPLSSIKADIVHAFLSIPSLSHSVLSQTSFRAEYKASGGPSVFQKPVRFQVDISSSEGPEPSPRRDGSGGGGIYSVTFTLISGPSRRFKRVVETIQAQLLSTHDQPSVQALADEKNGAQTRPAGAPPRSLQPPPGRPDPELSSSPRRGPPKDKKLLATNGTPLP
Description: as §1, §2

MAP3K11/MLK3 = MAP3K11/MLK3 (Homo sapiens, UniProt Q16584); experiment: Eurofins kinase enzymatic radiometric assay; assay type: biochemical; design: purchased Eurofins; conditions: Km of ATP, 9-point curve in duplicate
MAP3K11/MLK3, sequence (Q16584 whole entry): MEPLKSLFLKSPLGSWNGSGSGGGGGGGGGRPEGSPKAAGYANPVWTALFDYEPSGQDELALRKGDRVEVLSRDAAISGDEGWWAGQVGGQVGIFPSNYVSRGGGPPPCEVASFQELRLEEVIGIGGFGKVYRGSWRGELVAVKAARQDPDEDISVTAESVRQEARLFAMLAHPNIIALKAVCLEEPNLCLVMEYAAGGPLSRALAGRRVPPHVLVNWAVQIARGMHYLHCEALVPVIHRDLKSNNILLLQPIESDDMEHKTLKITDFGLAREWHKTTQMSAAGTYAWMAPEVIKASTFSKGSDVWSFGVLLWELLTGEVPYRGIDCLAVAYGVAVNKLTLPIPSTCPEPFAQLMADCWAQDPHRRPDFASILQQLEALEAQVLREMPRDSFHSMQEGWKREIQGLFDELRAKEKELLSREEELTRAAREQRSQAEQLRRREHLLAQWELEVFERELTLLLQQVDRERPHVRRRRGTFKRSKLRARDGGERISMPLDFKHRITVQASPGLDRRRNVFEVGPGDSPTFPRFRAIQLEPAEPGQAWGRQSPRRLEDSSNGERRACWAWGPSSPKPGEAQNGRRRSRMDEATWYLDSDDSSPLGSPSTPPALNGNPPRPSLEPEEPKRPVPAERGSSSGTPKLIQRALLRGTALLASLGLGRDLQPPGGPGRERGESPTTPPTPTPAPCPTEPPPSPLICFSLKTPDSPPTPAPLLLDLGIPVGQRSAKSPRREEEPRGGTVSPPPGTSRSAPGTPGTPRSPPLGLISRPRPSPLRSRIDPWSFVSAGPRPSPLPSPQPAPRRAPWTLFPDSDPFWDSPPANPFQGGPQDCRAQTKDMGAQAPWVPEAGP
Description: as §1, §2

NUAK1/ARK5 = NUAK1/ARK5 (Homo sapiens, UniProt O60285); experiment: Eurofins kinase enzymatic radiometric assay; assay type: biochemical; design: purchased Eurofins; conditions: Km of ATP, 9-point curve in duplicate
Description: as §1, §2

RPS6KA6/RSK4 = RPS6KA6/RSK4 (Homo sapiens, UniProt Q9UK32); experiment: Eurofins kinase enzymatic radiometric assay; assay type: biochemical; design: purchased Eurofins; conditions: Km of ATP, 9-point curve in duplicate
Description: as §1, §2

AURKB = AURKB (Homo sapiens, UniProt Q96GD4); experiment: Eurofins kinase enzymatic radiometric assay; assay type: biochemical; design: purchased Eurofins; conditions: Km of ATP, 9-point curve in duplicate
Description: as §1, §2

MAP3K9/MLK1 = MAP3K9/MLK1 (Homo sapiens, UniProt P80192); experiment: Eurofins kinase enzymatic radiometric assay; assay type: biochemical; design: purchased Eurofins; conditions: Km of ATP, 9-point curve in duplicate
Description: as §1, §2

DAPK3/ZIPK = DAPK3/ZIPK (Homo sapiens, UniProt O43293); experiment: Eurofins kinase enzymatic radiometric assay; assay type: biochemical; design: purchased Eurofins; conditions: Km of ATP, 9-point curve in duplicate
Description: as §1, §2

ROS1 = ROS1 (Homo sapiens, UniProt P08922); experiment: Eurofins kinase enzymatic radiometric assay; assay type: biochemical; design: purchased Eurofins; conditions: Km of ATP, 9-point curve in duplicate
Description: as §1, §2

SGK3 = SGK3 (Homo sapiens, UniProt Q96BR1); experiment: Eurofins kinase enzymatic radiometric assay; assay type: biochemical; design: purchased Eurofins; conditions: Km of ATP, 9-point curve in duplicate
Description: as §1, §2

MINK1/MINK = MINK1/MINK (Homo sapiens, UniProt Q8N4C8); experiment: Eurofins kinase enzymatic radiometric assay; assay type: biochemical; design: purchased Eurofins; conditions: Km of ATP, 9-point curve in duplicate
Description: as §1, §2

PRKG2/PKG2 = PRKG2/PKG2 (Homo sapiens, UniProt Q13237); experiment: Eurofins kinase enzymatic radiometric assay; assay type: biochemical; design: purchased Eurofins; conditions: Km of ATP, 9-point curve in duplicate
Description: as §1, §2

MAP4K4/HGK = MAP4K4/HGK (Homo sapiens, UniProt O95819); experiment: Eurofins kinase enzymatic radiometric assay; assay type: biochemical; design: purchased Eurofins; conditions: Km of ATP, 9-point curve in duplicate
MAP4K4/HGK, sequence (O95819 whole entry): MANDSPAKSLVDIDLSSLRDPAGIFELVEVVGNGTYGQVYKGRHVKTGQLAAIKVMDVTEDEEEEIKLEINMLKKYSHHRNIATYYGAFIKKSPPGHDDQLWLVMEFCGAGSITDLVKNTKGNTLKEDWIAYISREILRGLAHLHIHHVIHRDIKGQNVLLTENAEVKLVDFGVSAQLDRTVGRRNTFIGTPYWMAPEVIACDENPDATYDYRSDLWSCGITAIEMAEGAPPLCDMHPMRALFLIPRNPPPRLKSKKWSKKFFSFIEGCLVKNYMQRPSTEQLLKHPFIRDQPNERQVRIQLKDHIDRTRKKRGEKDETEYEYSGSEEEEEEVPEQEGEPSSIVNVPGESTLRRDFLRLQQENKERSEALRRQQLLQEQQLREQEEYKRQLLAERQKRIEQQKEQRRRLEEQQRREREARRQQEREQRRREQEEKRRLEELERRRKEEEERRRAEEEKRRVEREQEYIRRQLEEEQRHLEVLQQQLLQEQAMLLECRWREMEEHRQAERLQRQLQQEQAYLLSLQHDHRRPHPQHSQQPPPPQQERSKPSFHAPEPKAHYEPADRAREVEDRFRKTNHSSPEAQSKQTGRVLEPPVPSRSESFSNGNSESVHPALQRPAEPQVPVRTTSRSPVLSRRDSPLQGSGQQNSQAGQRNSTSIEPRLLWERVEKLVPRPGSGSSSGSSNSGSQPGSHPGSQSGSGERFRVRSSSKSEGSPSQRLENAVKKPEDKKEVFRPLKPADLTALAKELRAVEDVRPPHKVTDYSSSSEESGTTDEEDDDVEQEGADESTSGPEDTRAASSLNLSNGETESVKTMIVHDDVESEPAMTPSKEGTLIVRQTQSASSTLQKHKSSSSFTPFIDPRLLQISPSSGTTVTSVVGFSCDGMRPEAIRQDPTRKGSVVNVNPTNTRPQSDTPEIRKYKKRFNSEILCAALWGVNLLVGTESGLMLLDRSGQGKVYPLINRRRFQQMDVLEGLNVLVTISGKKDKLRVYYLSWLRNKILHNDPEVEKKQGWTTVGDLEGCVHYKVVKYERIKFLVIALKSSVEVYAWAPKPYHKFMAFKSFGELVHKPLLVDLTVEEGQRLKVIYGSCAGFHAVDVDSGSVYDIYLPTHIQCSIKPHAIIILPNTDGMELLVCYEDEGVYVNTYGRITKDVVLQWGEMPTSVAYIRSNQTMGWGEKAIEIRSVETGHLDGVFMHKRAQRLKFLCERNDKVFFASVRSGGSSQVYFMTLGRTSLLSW
Description: as §1, §2

PDGFRA = PDGFRA (Homo sapiens, UniProt P16234); experiment: Eurofins kinase enzymatic radiometric assay; assay type: biochemical; design: purchased Eurofins; conditions: Km of ATP, 9-point curve in duplicate
Description: as §1, §2

SGK1/SGK = SGK1/SGK (Homo sapiens, UniProt O00141); experiment: Eurofins kinase enzymatic radiometric assay; assay type: biochemical; design: purchased Eurofins; conditions: Km of ATP, 9-point curve in duplicate
SGK1/SGK, sequence (O00141 whole entry): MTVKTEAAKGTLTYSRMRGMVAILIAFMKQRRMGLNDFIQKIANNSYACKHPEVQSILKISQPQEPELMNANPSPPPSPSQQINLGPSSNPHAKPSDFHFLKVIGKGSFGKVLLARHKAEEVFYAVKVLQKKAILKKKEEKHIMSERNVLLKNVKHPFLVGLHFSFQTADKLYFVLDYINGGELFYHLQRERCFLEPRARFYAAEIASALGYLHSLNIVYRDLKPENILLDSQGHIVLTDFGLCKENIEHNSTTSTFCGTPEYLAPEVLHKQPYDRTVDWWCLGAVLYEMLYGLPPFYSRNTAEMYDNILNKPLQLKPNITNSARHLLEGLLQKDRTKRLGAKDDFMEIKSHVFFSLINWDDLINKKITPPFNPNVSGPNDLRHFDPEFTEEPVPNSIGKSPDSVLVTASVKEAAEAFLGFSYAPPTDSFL
Description: as §1, §2

DAPK2 = DAPK2 (Homo sapiens, UniProt Q9UIK4); experiment: Eurofins kinase enzymatic radiometric assay; assay type: biochemical; design: purchased Eurofins; conditions: Km of ATP, 9-point curve in duplicate
DAPK2, sequence (Q9UIK4 whole entry): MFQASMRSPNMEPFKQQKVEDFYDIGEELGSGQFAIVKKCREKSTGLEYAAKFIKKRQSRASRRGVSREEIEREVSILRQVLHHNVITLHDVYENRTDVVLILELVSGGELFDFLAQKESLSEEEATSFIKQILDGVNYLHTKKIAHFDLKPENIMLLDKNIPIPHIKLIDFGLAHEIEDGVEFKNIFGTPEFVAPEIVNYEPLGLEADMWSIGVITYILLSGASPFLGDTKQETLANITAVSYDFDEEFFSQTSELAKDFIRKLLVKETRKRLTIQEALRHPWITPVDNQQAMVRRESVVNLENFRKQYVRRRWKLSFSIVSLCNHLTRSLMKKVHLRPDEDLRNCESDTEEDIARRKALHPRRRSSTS
Description: as §1, §2

PLK4 = PLK4 (Homo sapiens, UniProt O00444); experiment: Eurofins kinase enzymatic radiometric assay; assay type: biochemical; design: purchased Eurofins; conditions: Km of ATP, 9-point curve in duplicate
PLK4, sequence (O00444 whole entry): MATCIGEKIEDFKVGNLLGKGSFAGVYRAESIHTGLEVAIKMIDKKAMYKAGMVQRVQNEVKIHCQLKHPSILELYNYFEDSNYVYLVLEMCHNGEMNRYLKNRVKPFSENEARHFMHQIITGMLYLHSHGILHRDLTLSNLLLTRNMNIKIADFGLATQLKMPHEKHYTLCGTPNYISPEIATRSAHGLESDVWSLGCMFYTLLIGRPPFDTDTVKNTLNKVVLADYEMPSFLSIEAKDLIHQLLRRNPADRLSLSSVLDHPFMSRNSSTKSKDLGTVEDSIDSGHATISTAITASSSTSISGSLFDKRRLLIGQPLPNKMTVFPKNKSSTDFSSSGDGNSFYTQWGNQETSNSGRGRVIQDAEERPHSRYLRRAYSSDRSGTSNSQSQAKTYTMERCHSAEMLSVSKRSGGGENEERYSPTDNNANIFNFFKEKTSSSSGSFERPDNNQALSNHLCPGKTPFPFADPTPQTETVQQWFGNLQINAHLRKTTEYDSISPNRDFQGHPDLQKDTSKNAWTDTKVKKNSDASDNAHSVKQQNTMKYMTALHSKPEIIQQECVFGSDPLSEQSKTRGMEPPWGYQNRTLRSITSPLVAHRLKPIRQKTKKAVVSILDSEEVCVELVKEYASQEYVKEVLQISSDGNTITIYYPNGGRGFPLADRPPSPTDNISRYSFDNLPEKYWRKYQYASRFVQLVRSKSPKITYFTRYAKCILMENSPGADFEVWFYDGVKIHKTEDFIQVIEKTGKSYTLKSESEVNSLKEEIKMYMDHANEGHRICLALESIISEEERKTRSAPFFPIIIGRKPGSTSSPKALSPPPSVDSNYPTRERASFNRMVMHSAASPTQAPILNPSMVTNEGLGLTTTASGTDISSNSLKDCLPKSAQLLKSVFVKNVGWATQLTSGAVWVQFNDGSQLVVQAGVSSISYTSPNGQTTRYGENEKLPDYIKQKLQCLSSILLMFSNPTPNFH
Description: as §1, §2

PIM2 = PIM2 (Homo sapiens, UniProt Q9P1W9); experiment: Eurofins kinase enzymatic radiometric assay; assay type: biochemical; design: purchased Eurofins; conditions: Km of ATP, 9-point curve in duplicate
PIM2, sequence (Q9P1W9 whole entry): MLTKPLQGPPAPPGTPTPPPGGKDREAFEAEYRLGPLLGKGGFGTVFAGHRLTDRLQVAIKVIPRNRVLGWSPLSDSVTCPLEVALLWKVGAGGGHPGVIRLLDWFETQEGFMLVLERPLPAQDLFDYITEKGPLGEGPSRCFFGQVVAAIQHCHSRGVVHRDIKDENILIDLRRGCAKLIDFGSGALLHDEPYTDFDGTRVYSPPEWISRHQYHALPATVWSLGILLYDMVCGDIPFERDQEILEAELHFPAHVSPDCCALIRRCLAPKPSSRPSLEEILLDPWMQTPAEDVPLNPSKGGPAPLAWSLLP
Description: as §1, §2

TNIK = TNIK (Homo sapiens, UniProt Q9UKE5); experiment: Eurofins kinase enzymatic radiometric assay; assay type: biochemical; design: purchased Eurofins; conditions: Km of ATP, 9-point curve in duplicate
Description: as §1, §2

LRRK2 = LRRK2 (Homo sapiens, UniProt Q5S007); experiment: Eurofins kinase enzymatic radiometric assay; assay type: biochemical; design: purchased Eurofins; conditions: Km of ATP, 9-point curve in duplicate
Description: as §1, §2

STK17A/DRAK1 = STK17A/DRAK1 (Homo sapiens, UniProt Q9UEE5); experiment: Eurofins kinase enzymatic radiometric assay; assay type: biochemical; design: purchased Eurofins; conditions: Km of ATP, 9-point curve in duplicate
Description: as §1, §2

**Q.** What does the source list for `COc1ccc2[nH]c3c4[nH]c5ccc(OC)cc5c4c4c(c3c2c1)C(=O)NC4=O` [GW296115]?
**A.** Nanosyn % Inhibition at 1 μM (PIM3): 83%; IC50 (MAP2K5/MEK5): > 10 µM; IC50 [1]: 2 µM; IC50 [2]: 1.8 ± 0.12 µM; IC50 (BRSK1): 0.021 µM; IC50 (MAP3K11/MLK3): 0.0015 µM; IC50 (NUAK1/ARK5): 0.015 µM; IC50 (RPS6KA6/RSK4): 0.012 µM; IC50 (AURKB): 0.094 µM; IC50 (MAP3K9/MLK1): 0.026 µM; IC50 (DAPK3/ZIPK): 0.1 µM; IC50 (ROS1): > 10 µM; IC50 (SGK3): > 10 µM; IC50 (MINK1/MINK): 0.035 µM; IC50 (PRKG2/PKG2): 0.0063 µM; IC50 (MAP4K4/HGK): 0.029 µM; IC50 (PDGFRA): 0.71 µM; IC50 (SGK1/SGK): 0.71 µM; IC50 (DAPK2): 0.021 µM; IC50 (PLK4): 0.017 µM; IC50 (PIM2): 0.01 µM; IC50 (TNIK): 0.01 µM; IC50 (LRRK2): 0.025 µM; IC50 (STK17A/DRAK1): 0.028 µM
